# From US9090633B2, “Substituted 4-(arylamino) selenophenopyrimidine compounds and methods of use thereof” (KASINA LAILA INNOVA PHARMACEUTICALS PRIVATE LIMITED, priority 2010, dated 2013)
# How the values were obtained:
# [1] = tested on: human prostate DU145 cells; assay: MTT based cell proliferation assay, DU145; details: for IC50: DU-145, 72 h, read-out: Cell proliferation inhibition in DU145 (Prostate carcinoma), IC50
# Method: (§1) MTT [3-(4,5-dimethylthiazol-2-yl)-2,5-diphenyltetrazolium bromide incorporation based cell proliferation assay was performed using standard procedure. […] The assay was carried out according to the instructions provided by the vendor. […] Vehicle control culture wells received only a maximum of 0.5% DMSO. Thereafter, 0.5 mg/ml of MTT reagent was added to each well and the microplate was incubated further for 4 h at 37° C. in presence of 5% CO2. Finally, the cells were solubilized by adding solubilizing solution and allowed to incubate at 37° C. overnight. After complete solubilization of the formazan crystals the absorbance was read at 540 nm in a microplate reader (BioRad, USA).
# (§2) The evaluation of cell proliferation inhibitory activities of the compounds was done in two phases—(1) Screening, and (2) half-maximal inhibitory concentration (IC50) determination. In the screening phase, the cells were treated with different concentrations.
# [2] = tested on: human colorectal carcinoma HT29 cells; assay: MTT based cell proliferation assay, HT29; details: for IC50: HT-29, 72 h, read-out: Cell proliferation inhibition in HT29 (Colon carcinoma), IC50
# Method: as §1, §2
# [3] = tested on: human lung carcinoma A549 cells; assay: MTT based cell proliferation assay, A549; details: for IC50: A549, 72 h, read-out: Cell proliferation inhibition in A549 (Lung carcinoma), IC50
# Method: as §1, §2
# [4] = tested on: human cervical carcinoma HeLa cells; assay: MTT based cell proliferation assay, HeLa
# Method: as §1, §2
# [5] = tested on: human Hepatocellular carcinoma HepG2 cells; assay: MTT based cell proliferation assay, HepG2
# Method: as §1, §2
# [6] = tested on: human breast carcinoma (estrogen receptor negative) MDA-MB-231 cells; assay: MTT based cell proliferation assay, MDA-MB-231
# Method: as §1, §2
# [7] = Homo sapiens, HT-29, read-out: Cell proliferation inhibition in HT29 (Colon carcinoma)
# [8] = Homo sapiens, DU-145, read-out: Cell proliferation inhibition in DU145 (Prostate carcinoma)
# [9] = Homo sapiens, A549, read-out: Cell proliferation inhibition in A549 (Lung carcinoma)
compound,measurement,setting,value
"Fc1ccc(Nc2ncnc3[se]c4c(c23)CCCC4)cc1Cl [Compound 1, (3-chloro-4-fluorophenyl)-5,6,7,8-tetrahydrobenzo[1,2-b]pyrimidino[5,6-d]selenophen-4-ylamine]",IC50,[1]; Homo sapiens,8.37 µM
"Brc1cncc(Nc2ncnc3[se]c4c(c23)CCCC4)c1 [Compound 2, (5-bromo(3-pyridyl))-5,6,7,8-tetrahydrobenzo[1,2-b]pyrimidino[5,6-d]selenophen-4-ylamine]",inhibition at 22.421 µM,[2]; [7],11.1%
same,inhibition at 22.421 µM,[1]; [8],13.1%
same,inhibition at 22.421 µM,[3]; [9],20.7%
"Clc1cc(Nc2ncnc3[se]c4c(c23)CCCC4)cc(Cl)n1 [Compound 3, (2,6-dichloropyridin-4-yl)-5,6,7,8-tetrahydrobenzo[1,2-b]pyrimidino[5,6-d]selenophen-4-ylamine]",inhibition at 22.935 µM,[2]; [7],13.8%
same,inhibition at 22.935 µM,[1]; [8],18.3%
same,inhibition at 22.935 µM,[3]; [9],15.6%
"Clc1cc(Nc2ncnc3[se]c4c(c23)CCCC4)nc(Cl)n1 [Compound 4, (2,6-dichloropyrimidin-4-yl)-5,6,7,8-tetrahydrobenzo[1,2-b]pyrimidino[5,6-d]selenophen-4-ylamine]",IC50,[2]; Homo sapiens,162 µM
same,IC50,[1]; Homo sapiens,37.1 µM
same,IC50,[3]; Homo sapiens,42.3 µM
"c1cnc(Nc2ncnc3[se]c4c(c23)CCCC4)cn1 [Compound 5, pyrazin-2-yl-5,6,7,8-tetrahydrobenzo[1,2-b]pyrimidino[5,6-d]selenophen-4-ylamine]",IC50,[1]; Homo sapiens,16.4 µM
Brc1cc(Nc2ncnc3[se]c4c(c23)CCCC4)c(Br)s1 [Compound 6],inhibition at 18.868 µM,[2]; [7],15.5%
same,IC50,[1]; Homo sapiens,42.4 µM
same,IC50,[3]; Homo sapiens,49 µM
"CC(C)(C)c1cc(Nc2ncnc3[se]c4c(c23)CCCC4)c(C(N)=O)s1 [Compound 7, (5-tert-butyl)-3-(5,6,7,8-tetrahydrobenzo[1,2-b]pyrimidino[5,6-d]selenophen-4-ylamino)thiophene-2-carboxamide]",IC50,[2]; Homo sapiens,9.3 µM
"NS(=O)(=O)c1ccc(Nc2ncnc3[se]c4c(c23)CCCC4)cc1 [Compound 12, 4-(5,6,7,8-tetrahydrobenzo[1,2-b]pyrimidino[5,6-d]selenophen-4-ylamino)benzenesulfonamide]",inhibition at 24.449 µM,[2]; [7],15.6%
"CC(C)(C)c1c[se]c2ncnc(Nc3ccc(F)c(Cl)c3)c12 [Compound 13, [5-(tert-butyl)selenopheno[3,2-e]pyrimidin-4-yl](3-chloro-4-fluorophenyl)amine]",IC50,[2]; Homo sapiens,37.9 µM
same,IC50,[1]; Homo sapiens,41.6 µM
same,IC50,[3]; Homo sapiens,15 µM
"Fc1ccc(Nc2ncnc3[se]cc(-c4ccccc4)c23)cc1Cl [Compound 14, (3-chloro-4-fluorophenyl)(5-phenylselenopheno[3,2-e]pyrimidin-4-yl]amine]",IC50,[1]; Homo sapiens,105 µM
same,IC50,[3]; Homo sapiens,121 µM
"Cc1c(C(=O)O)[se]c2ncnc(Nc3ccc(F)c(Cl)c3)c12 [Compound 15, 4-[(3-chloro-4-fluorophenyl)amino]-5-methylselenopheno[2,3-d]pyrimidine-6-carboxylic acid]",inhibition at 240.539 µM,[2]; [7],18.9%
same,inhibition at 240.539 µM,[1]; [8],41.2%
same,inhibition at 240.539 µM,[3]; [9],25%
Cc1[se]c2ncnc(Nc3ccc(F)c(Cl)c3)c2c1-c1ccccc1 [Compound 16],inhibition at 66.079 µM,[2]; [7],38.6%
same,IC50,[1]; Homo sapiens,111 µM
same,IC50,[3]; Homo sapiens,44.1 µM
"Cc1c(C(N)=O)[se]c2ncnc(Nc3ccc(F)c(Cl)c3)c12 [Compound 17, 4-[(3-chloro-4-fluorophenyl)amino]-5-methylselenopheno[2,3-d]pyrimidine-6-carboxamide]",inhibition at 25 µM,[1]; [8],44.4%
same,inhibition at 25 µM,[3]; [9],21.4%
"Fc1ccc(Nc2ncnc3[se]c4c(c23)CCNC4)cc1Cl [Compound 18, (3-chloro-4-fluorophenyl)-5,6,7,8-tetrahydropyrimidino[5′,6′-5,4]selenopheno[2,3-c]pyridine-4-ylamine]",IC50,[2]; Homo sapiens,39.1 µM
same,IC50,[1]; Homo sapiens,42.5 µM
same,IC50,[3]; Homo sapiens,82.6 µM
"CS(=O)(=O)N1CCc2c([se]c3ncnc(Nc4ccc(F)c(Cl)c4)c23)C1 [Compound 19, 4[(3-chloro-4-fluorophenyl)amino]-7-(methylsulfonyl)-5,6,7,8-tetrahydro-pyrimidino[5′,4′-5,4]selenopheno[2,3-c]pyridine]",inhibition at 25 µM,[2]; [7],3.07%
same,inhibition at 25 µM,[1]; [8],29.2%
same,inhibition at 25 µM,[3]; [9],27.4%
"Brc1cccc(Nc2ncnc3[se]c4c(c23)CCNC4)c1 [Compound 20, (3-bromophenyl)-5,6,7,8-tetrahydropyrimidino[5′,6′-5,4]selenopheno[2,3-c]pyridin-4-ylamine]",inhibition at 22.421 µM,[2]; [7],8.96%
same,inhibition at 22.421 µM,[1]; [8],13.4%
same,inhibition at 22.421 µM,[3]; [9],0.45%
"C#Cc1cccc(Nc2ncnc3[se]c4c(c23)CCNC4)c1 [Compound 21, (3-ethynylphenyl)-5,6,7,8-tetrahydropyrimidino[5′,6′-5,4]selenopheno[2,3-c]pyridine-4-ylamine]",inhibition at 25.575 µM,[2]; [7],4.66%
same,inhibition at 25.575 µM,[1]; [8],12.9%
same,inhibition at 25.575 µM,[3]; [9],11.6%
"Clc1ccc(Nc2ncnc3[se]c4c(c23)CCNC4)cc1Cl [Compound 22, (3,4-dichlorophenyl)-5,6,7,8-tetrahydropyrimidino[5′,6′-5,4]selenopheno[2,3-c]pyridin-4-ylamine]",inhibition at 22.935 µM,[2]; [7],28.4%
same,inhibition at 22.935 µM,[1]; [8],36.6%
same,inhibition at 22.935 µM,[3]; [9],16.7%
"COC(=O)c1cc(Nc2ncnc3[se]c4c(c23)CCNC4)c(C)s1 [Compound 23, methyl 5-methyl-4-(5,6,7,8-tetrahydropyrimidino[5′,6′-5,4]selenopheno[2,3-c]pyridin-4-ylamino)thiophene-2-carboxylate]",inhibition at 22.472 µM,[2]; [7],15.4%
same,inhibition at 22.472 µM,[1]; [8],5.08%
same,inhibition at 22.472 µM,[3]; [9],8.64%
Cc1c(C(=O)NCCCl)[se]c2ncnc(Nc3ccc(F)c(Cl)c3)c12 [Compound 25],IC50,[2]; Homo sapiens,9.24 µM
same,IC50,[1]; Homo sapiens,8.51 µM
same,inhibition at 19.92 µM,[3]; [9],0.19%
"O=C1CCc2c([se]c3ncnc(Nc4ccc(F)c(Cl)c4)c23)C1 [Compound 26, 4-[(3-chloro-4-fluorophenyl)amino]-5,6,8-trihydrobenzo[2,1-b]pyrimidino[5,4-d]selenophen-7-one]",inhibition at 23.148 µM,[2]; [7],30.9%
same,inhibition at 23.148 µM,[1]; [8],65.1%
same,inhibition at 23.148 µM,[3]; [9],17.5%
"Fc1ccc(Nc2ncnc3c4c([se]c23)CCCC4)cc1Cl [Compound 27, (3-chloro-4-fluorophenyl)-6,7,8,9-tetrahydrobenzo[1,2-d]pyrimidino[5,6-b]selenophen-4-ylamine]",IC50,[2]; Homo sapiens,117 µM
same,IC50,[1]; Homo sapiens,11.4 µM
same,IC50,[3]; Homo sapiens,33.5 µM
"CC(C)(C)c1cc2ncnc(Nc3ccc(F)c(Cl)c3)c2[se]1 [Compound 28, [6-(tert-butyl)selenopheno[2,3-e]pyrimidin-4-yl](3-chloro-4-fluorophenyl)amine]",IC50,[2]; Homo sapiens,71 µM
same,IC50,[1]; Homo sapiens,82.7 µM
same,IC50,[3]; Homo sapiens,109 µM
"Fc1ccc(Nc2ncnc3cc(-c4ccccc4)[se]c23)cc1Cl [Compound 29, (3-chloro-4-fluorophenyl)(6-phenylselenopheno[2,3-e]pyrimidin-4-yl)amine]",inhibition at 25 µM,[2]; [7],43.1%
same,inhibition at 25 µM,[1]; [8],30.8%
same,inhibition at 30 µM,[3]; [9],45.5%
"Fc1ccc(Nc2ncnc3c2[se]c2ccccc23)cc1Cl [Compound 30, benzo[d]pyrimidino[5,6-b]selenophen-4-yl(3-chloro-4-fluorophenyl)amine]",inhibition at 25 µM,[2]; [7],38.1%
same,IC50,[1]; Homo sapiens,26.8 µM
same,IC50,[3]; Homo sapiens,21.8 µM
"Fc1ccc(Nc2ncnc3c2[se]c2ncccc23)cc1Cl [Compound 31, (3-chloro-4-fluorophenyl)pyrimidino[4′,5′-5,4]selenopheno[2,3-b]pyridin-4-ylamine]",inhibition at 25 µM,[2]; [7],5.21%
same,inhibition at 25 µM,[1]; [8],22%
same,inhibition at 25 µM,[3]; [9],30.2%
CN(c1ccc(Cl)cc1)c1ncnc2[se]c3c(c12)CCNC3 [Compound 33],IC50,"[4]; Homo sapiens, 72 h, read-out: Cell proliferation inhibition (IC50) in HeLa (Cervical Carcinoma)",23.1 µM
same,more potent than Gefitinib (Iressa) in inhibiting tumor cells proliferation,[4]; from IC50 values,117%
same,more potent than Gefitinib (Iressa) in inhibiting tumor cells proliferation,"[2]; HT29, from IC50 values",257.8%
same,IC50,[2]; Homo sapiens,13.1 µM
same,more potent than Gefitinib (Iressa) in inhibiting tumor cells proliferation,"[1]; DU145, from IC50 values",6.8%
same,IC50,[1]; Homo sapiens,29.5 µM
same,more potent than Gefitinib (Iressa) in inhibiting tumor cells proliferation,"[3]; A549, from IC50 values",101%
same,IC50,[3]; Homo sapiens,28.4 µM
same,more potent than Gefitinib (Iressa) in inhibiting tumor cells proliferation,"[5]; HepG2, from IC50 values",241%
same,IC50,"[5]; Homo sapiens, HepG2, 72 h, read-out: Cell proliferation inhibition (IC50) in HepG2 (Hepatocellular Carcinoma)",10.4 µM
same,IC50,"[6]; Homo sapiens, MDA-MB-231, 72 h, read-out: Cell proliferation inhibition (IC50) in MDA-MB-231 (Breast Carcinoma)",20.4 µM
same,more potent than Gefitinib (Iressa) in inhibiting tumor cells proliferation,"[6]; MDA-MB-231, from IC50 values",122%
"ethyl 4-[(3-chloro-4-fluorophenyl)amino]-5-methylthioselenopheno[3,4-d]pyrimidine-7-carboxylate [Compound 32]",Cell proliferation inhibition in HT29 (Colon carcinoma),[2]; at 25 μM,12.97% at 25 μM
same,Cell proliferation inhibition in DU145 (Prostate carcinoma),[1]; at 25 μM,9.75% at 25 μM
same,Cell proliferation inhibition in A549 (Lung carcinoma),[3]; at 25 μM,26.1% at 25 μM
